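The compound was tested at five concentrations on cells cultured in 96-well plates, with a 48-hour exposure period. TGI: total growth inhibition.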
Key:
Experiment in all cases: NCI tumour cell line growth inhibition, 48 h
BT-549 breast = system: BT-549 breast
HCT-116 colon = system: HCT-116 colon
LOX IMVI melanoma = system: LOX IMVI melanoma
NCI-H23 lung = system: NCI-H23 lung
NCI-H522 lung = system: NCI-H522 lung
OVCAR-4 ovarian = system: OVCAR-4 ovarian
SNB-19 CNS = system: SNB-19 CNS
UO-31 renal = system: UO-31 renal
HCC-2998 colon = system: HCC-2998 colon

SMILES | TGI (BT-549 breast) [µM] | TGI (HCT-116 colon) [µM] | TGI (LOX IMVI melanoma) [µM] | TGI (NCI-H23 lung) [µM] | TGI (NCI-H522 lung) [µM] | TGI (OVCAR-4 ovarian) [µM] | TGI (SNB-19 CNS) [µM] | TGI (UO-31 renal) [µM] | TGI (HCC-2998 colon) [µM]
CC1(C)C(C(=O)OC(C#N)c2cccc(OCC(=O)OCc3ccccc3)c2)C1(C)C (stereo unspecified) | > 100 | > 100 | > 100 | > 100 | > 100 | > 100 | > 100 | > 100 | 
CC(=O)O[C@@H]1CC2[C@@H](CCC3Cc4nc5c(nc4C[C@@]32C)CC2CC[C@@H]3C(CC[C@@]4(C)C3CC[C@@H]4C(C)CCCC(C)C)[C@@]2(C)C5)C2C[C@@H]3OC4(CCC(C)CO4)C(C)[C@@H]3[C@]21C (stereo partly specified) | > 100 | > 100 |  | > 100 | > 100 | > 100 | > 100 |  | > 100
O=C(OCc1c(-c2ccccc2)nn(-c2ccccc2)c1COC(=O)Oc1ccccc1)Oc1ccccc1 |  | > 100 | > 100 | > 100 | > 100 | > 100 | > 100 |  | > 100
COc1cc(OC)c(NC2=NCCO2)cc1Cl |  | 94.5 | 99.3 | 58.1 | > 100 | > 100 | > 100 | > 100 | 71.1
O=S(=O)(Nc1nc(-c2cc(O)c(O)c(O)c2)cs1)c1ccc(Cl)cc1Cl |  | 40.1 | 33.6 | 74.1 | 34.5 | 47.9 | > 100 | 46.5 | 
CNC(=O)C(NC(=O)[C@H](CC(C)C)NC(=O)[C@@H](S)CCN1C(=O)N(C)C(C)(C)C1=O)C(C)(C)C (stereo partly specified) | > 100 | > 100 |  | > 100 | > 100 | > 100 | > 100 | > 100 | > 100
CN1CCN(c2ccc3nc(-c4ccc5nc(-c6ccc(N(C)CCCl)cc6)[nH]c5c4)[nH]c3c2)CC1 |  | 14.4 | 0.218 | 7.4 | 0.0365 | 1.04 | 1.01 | 33.8 | 1.88
CC(C(O)c1ccccc1)[N+](=O)[O-] (stereo unspecified) |  | > 100 | 6.02 | > 100 | 22.9 | 52.6 | 66 | 20.6 | 30.5
O=C(/C=C/c1ccsc1)c1ccc(Cl)s1 |  | 60.5 | 37.1 | > 100 |  | > 100 | > 100 | > 100 | > 100
FC(F)(F)c1nc2cc(SSc3cc4nc(C(F)(F)F)[nH]c4cc3Cl)c(Cl)cc2[nH]1 | > 100 | > 100 | > 100 | > 100 | > 100 | > 100 | > 100 |  | > 100
Cc1ccc(C(=O)/C=C/N2CCN(c3cccc(C(F)(F)F)c3)CC2)cc1 |  | 30.6 |  | 31 | 35.4 | > 100 | > 100 | 36.7 | 25.5
N#CCCCCC12C3C(=O)N(c4ccccc4)C(=O)C3ON1O[C@@H]1C(=O)N(c3ccccc3)C(=O)[C@@H]12 (stereo partly specified) | > 100 |  | > 100 | > 100 | > 100 | > 100 | > 100 | > 100 | > 100
